According to patent publication US20080051315A1 (priority 2003, published 2008):

Assays:
GRPR = GRPR (Mus musculus, UniProt P21729); type: cell-based
GABAA receptors = experiment: block of sIPSCs in pyramidal neurons of the lateral amygdala; type: cell-based, mouse; conditions: picrotoxin 50 uM; n=10; holding potential -70 mV
Protocol: Amygdala slices (250-300 um) were prepared from 3-5 week old control and GRPR knockout mice (littermates) with a vibratome. Slices were continuously superfused in solution containing (in mM): 119 NaCl, 2.5 KCl, 2.5 CaCl2,1.0 MgSO4, 1.25 NaH2PO4, 26.0 NaHCO3, 10 glucose, and equilibrated with 95% O2 and 5% CO2 [pH 7.3-7.4] at room temperature. Whole-cell recordings of evoked compound EPSCs or spontaneous GABA-mediated IPSCs were obtained from pyramidal cells in the lateral amygdala under visual guidance (DIG/ infrared optics) with an EPC-9 amplifier and Pulse v8.09 software (HEKA Elektronik). […] Series resistance was monitored throughout experiment and was in a range of […]. […] The EPSC amplitudes were measured as the difference between the mean current during a prestimulus baseline and the mean current over a 2 ms-window at the peak of the response. […]
The spontaneous IPSCs were recorded on videotape for off line analysis in the presence of 20 uM CNQX. Data were analyzed with the Mini Analysis Program v5.2.4 (Synaptosoft Inc., Decatur, Ga.; Bolshakov et al., 2000).
We recorded spontaneous inhibitory postsynaptic currents (sIPSCs) in the pyramidal neurons having blocked the AM PA (a-amino-3-hydroxy-5-methyl-4-isoxazolepropionic acid) receptor-mediated responses (FIG. 2) with CNQX (6-cyano-7-nitroquinoxaline-2,3-dione, 20 uM).

[1] = test system: pyramidal neurons in slices from GRPR knockout mice; type: cell-based, mouse

Sequence of GRPR (P21729 whole entry): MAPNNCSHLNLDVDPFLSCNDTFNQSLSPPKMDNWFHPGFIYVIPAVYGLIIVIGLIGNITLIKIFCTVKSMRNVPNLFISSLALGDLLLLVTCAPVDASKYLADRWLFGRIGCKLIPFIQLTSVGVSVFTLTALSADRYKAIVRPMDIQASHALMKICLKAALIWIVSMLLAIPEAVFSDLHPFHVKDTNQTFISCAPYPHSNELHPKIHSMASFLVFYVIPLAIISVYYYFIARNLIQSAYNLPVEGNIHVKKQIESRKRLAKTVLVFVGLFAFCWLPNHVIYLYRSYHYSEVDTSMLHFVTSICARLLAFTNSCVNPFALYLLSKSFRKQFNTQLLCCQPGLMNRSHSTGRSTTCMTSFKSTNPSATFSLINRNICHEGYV

Q: How did the “effect of GRP on frequency of sIPSCs in the presence of TTX” value (GRPR) turn out when `NC1=N[C@H](O)[C@H]2[C@H]3O[C@]4(O)O[C@@H]([C@@H](O)[C@@]2(N1)[C@@H]4O)[C@]3(O)CO` [TTX, tetrodotoxin] was run?
A: blocking the effects of the agonist

Q: picrotoxin was tested. Which “block of sIPSCs” value (GABAA receptors) did it give?
A: completely blocked

Q: With gastrin-releasing peptide [GRP] as the molecule, how does the “effect of GRP on frequency of sIPSCs (in words)” value [1] read?
A: failed to increase

Q: And the “frequency of sIPSCs” value [1]?
A: 5.64±0.67 Hz
